Laboratory results taken from US9492436B2, “Azabenzimidazole derivatives” (Boehringer Ingelheim International GmbH, priority 2013, dated 2016).

biological target: T1, AMPK complex 1 (containing alpha1beta1gamma1) (Homo sapiens, UniProt Q13131+Q9Y478); test: In vitro AMPK activation assay (ADP-Glo Kinase Assay); type: biochemical; details: 30 μM ATP, 1 μM peptide, 60 min, room temperature
T1 construct: GST (Glutathion S transferase) (N); made in house; host or cells: baculovirus; virus made in Sf9, expression in High Five cells
Excerpt: Activated AMPK complex 1 (containing alpha1beta1gamma1) was obtained from baculovirus expression system. The gene encoding AMPK alpha1 was cloned into the pACG2T vector (BD Biosciences) to obtain a N-terminal Glutathion S transferase (GST)-fusion protein. The genes encoding AMPK beta 1 and gamma1 were cloned into the p2Bac dual multiple cloning site vector (Invitrogen) with beta1 under the control of the p10 promoter and gamma1 under the control of the PH promoter. The transfer vectors containing AMPK were co-transfected individually with AcPNV BacMagic-3 DNA (EMD Millipore) in Sf9 cells and the recombinant baculoviruses were harvested after 5 days, followed by 3 rounds of amplification of the virus stock in Sf9 cells. AMPK (alpha1beta1gamma1) was expressed in High Five 5 cells by co-infection of recombinant alpha1 virus and recombinant beta1/gamma1 virus for 72 h at 27° C. Cells were harvested by centrifugation and lysed by 3 freeze/thaw cycles in PBS with 10% glycerol and protease inhibitor cocktail (Roche). After centrifugation AMPK a1b1g1 in the supernatant was captured by immobilized glutathione (GE Healthcare), impurities were washed away with PBS and AMPK alpha1beta1gamma1 was eluted with PBS containing 20 mM reduced gluthathione. The protein buffer was then exchanged to PBS with 10% glycerol and protein concentration was determined by UV absorbance.
The white 384-well Optiplates (cat.no. 6007299) were purchased from PerkinElmer. The V9101 ADP-Glo Kinase Assay and ultra pure ATP (V915A) was purchased from Promega. The substrate for AMPK (NH2-HMRSAMSGLHLVKRR_CONH2) was purchased from Upstate (12-355).
Compounds were tested in either serial dilutions or single dose concentrations. The serial compound dilutions were prepared in 100% DMSO automatically. The final DMSO concentration in the assay was 0.1%.
The Compound Stock Solutions were 10 mM in 100% DMSO. The compounds were solubilised at room temperature.
In the 384-well plates 1.25 ul of test compound in assay buffer was mixed with 1.25 ul of AMPK and 1.25 μl of the peptide (final concentration of 1 μM) and 1.25 μl of ATP (final concentration of 30 μM), both dissolved in assay buffer. This step was followed by an incubation time of 60 min. Then 5 μl of ADP Glo Reagent was added. This was followed by 40 min of incubation. Then 10 μl of Kinase Detection Reagent was admixed. The plates were sealed and after an incubation period of 30 min, the luminescence signal was measured in an Envision reader. All incubation steps were accomplished at room temperature.
Each assay microtiter plate contained wells with vehicle controls instead of compound (0.1% DMSO in water) as reference for the low signal (100% CTL, low signal), and wells with serial dilutions of AMP (final 30 μM) as reference for high signals.
The luminescence signal generated was proportional to the ADP concentration produced and was correlated with AMPK activity. The analysis of the data was performed by the calculation of the percentage of ATP consumption of AMPK in the presence of the test compound compared to the consumption of ATP in the presence of AMPK without compound. (RLU(sample)/RLU(low control))*100[RLU=relative luminescence units]
An activator of the AMPK enzyme gave values above 100% CTL.
EC50 values based on dose response curves are calculated with the XIFIT software using the 4 Parameter Logistic Model or Sigmoidal Dose-Response Model.

T1 sequence (Q13131 whole entry): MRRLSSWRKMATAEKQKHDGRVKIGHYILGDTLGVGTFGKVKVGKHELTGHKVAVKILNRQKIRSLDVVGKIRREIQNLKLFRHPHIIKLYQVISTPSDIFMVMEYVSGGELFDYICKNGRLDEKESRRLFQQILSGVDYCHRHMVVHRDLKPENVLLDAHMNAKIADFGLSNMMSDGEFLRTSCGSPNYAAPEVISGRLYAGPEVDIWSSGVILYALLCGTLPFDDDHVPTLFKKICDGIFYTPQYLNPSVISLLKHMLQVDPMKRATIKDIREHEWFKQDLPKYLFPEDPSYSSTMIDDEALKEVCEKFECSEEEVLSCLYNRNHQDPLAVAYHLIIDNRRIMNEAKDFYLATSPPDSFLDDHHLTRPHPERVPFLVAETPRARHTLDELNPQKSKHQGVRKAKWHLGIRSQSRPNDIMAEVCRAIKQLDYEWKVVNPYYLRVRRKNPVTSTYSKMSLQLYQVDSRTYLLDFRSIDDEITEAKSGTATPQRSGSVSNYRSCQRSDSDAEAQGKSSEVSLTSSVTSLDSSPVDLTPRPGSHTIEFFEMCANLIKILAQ
T1 sequence (Q9Y478 whole entry): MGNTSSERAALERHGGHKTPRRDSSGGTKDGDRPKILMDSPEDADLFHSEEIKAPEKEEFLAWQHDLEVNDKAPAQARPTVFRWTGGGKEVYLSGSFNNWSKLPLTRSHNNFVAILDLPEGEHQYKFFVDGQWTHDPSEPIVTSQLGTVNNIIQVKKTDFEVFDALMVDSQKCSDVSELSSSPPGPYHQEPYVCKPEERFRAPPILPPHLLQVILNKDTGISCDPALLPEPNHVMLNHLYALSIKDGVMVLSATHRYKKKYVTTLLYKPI
T1 sequence (P54619 whole entry partner): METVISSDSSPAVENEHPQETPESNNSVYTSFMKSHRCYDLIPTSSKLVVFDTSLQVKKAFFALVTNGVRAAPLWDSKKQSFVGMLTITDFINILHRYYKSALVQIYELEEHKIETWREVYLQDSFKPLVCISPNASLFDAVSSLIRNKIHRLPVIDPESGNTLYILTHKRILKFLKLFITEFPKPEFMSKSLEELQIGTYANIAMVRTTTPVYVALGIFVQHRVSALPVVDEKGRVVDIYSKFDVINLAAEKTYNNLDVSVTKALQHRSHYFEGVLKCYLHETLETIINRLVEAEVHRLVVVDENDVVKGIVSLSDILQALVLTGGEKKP

Row | SMILES | EC50
1 | N=S1(=O)CCC(c2ccc(-c3nc4[nH]c(O[C@@H]5CO[C@H]6[C@@H]5OC[C@H]6O)nc4cc3Cl)cc2)CC1 (single isomer, unassigned) [Example 54] | 114 nM
2 | N=S1(=O)CCC(c2ccc(-c3nc4[nH]c(O[C@@H]5CO[C@H]6[C@@H]5OC[C@H]6O)nc4cc3Cl)cc2)CC1 (single isomer, unassigned) [Example 55] | 26 nM
3 | CS(C)(=O)=Nc1ccc(-c2nc3[nH]c(O[C@@H]4CO[C@H]5[C@@H]4OC[C@H]5O)nc3cc2Cl)cc1 [Example 1] | 275 nM
4 | CS(C)(=O)=NC(=O)c1ccc(-c2nc3[nH]c(O[C@@H]4CO[C@H]5[C@@H]4OC[C@H]5O)nc3cc2Cl)cc1 [Example 3] | 402 nM
5 | N=S1(=O)CCN(c2ccc(-c3nc4[nH]c(O[C@@H]5CO[C@H]6[C@@H]5OC[C@H]6O)nc4cc3Cl)cc2)CC1 [Example 4] | 22 nM
6 | CN=S1(=O)CCN(c2ccc(-c3nc4[nH]c(O[C@@H]5CO[C@H]6[C@@H]5OC[C@H]6O)nc4cc3Cl)cc2)CC1 [Example 5] | 62 nM
7 | CS(C)(=O)=NC(=O)c1ccc(-c2ccc(-c3nc4[nH]c(O[C@@H]5CO[C@H]6[C@@H]5OC[C@H]6O)nc4cc3Cl)cc2)cc1 [Example 6, N-4′-(6-Chloro-2-((3R,3aR,6R,6aR)-6-hydroxyhexahydrofuro[3,2-b]furan-3-yloxy)-3H-imidazo[4,5-b]pyridin-5-yl)biphenyl-4-carbonyl-S,S-dimethylsulfoximide] | 2 nM
8 | O=S1(=Nc2ccc(-c3ccc(-c4nc5[nH]c(O[C@@H]6CO[C@H]7[C@@H]6OC[C@H]7O)nc5cc4Cl)cc3)cc2)CCCC1 [Example 8, (3R,3aR,6R,6aR)-6-{6-Chloro-5-[4′-(1-oxo-tetrahydro-1λ4-thiophen-1-ylideneamino)-biphenyl-4-yl]-3H-imidazo[4,5-b]pyridin-2-yloxy}-hexahydro-furo[3,2-b]furan-3-ol] | 4 nM
9 | C[S@@](=O)(=Nc1ccc(-c2nc3[nH]c(O[C@@H]4CO[C@H]5[C@@H]4OC[C@H]5O)nc3cc2Cl)cc1)c1ccccc1 [Example 9, (S)-N-(4-(6-Chloro-2-((3R,3aR,6R,6aR)-6-hydroxyhexahydrofuro[3,2-b]furan-3-yloxy)-3H-imidazo[4,5-b]pyridin-5-yl)phenyl)-S-methyl-S-phenylsulfoximide] | 14 nM
10 | CCS(=O)(CC)=Nc1ccc(-c2ccc(-c3nc4[nH]c(O[C@@H]5CO[C@H]6[C@@H]5OC[C@H]6O)nc4cc3Cl)cc2)cc1 [Example 11, N-(4′-(6-Chloro-2-((3R,3aR,6R,6aR)-6-hydroxyhexahydrofuro[3,2-b]furan-3-yloxy)-3H-imidazo[4,5-b]pyridin-5-yl)biphenyl-4-yl)-S,S-diethylsulfoximide] | 3 nM
11 | C[S@](=O)(=Nc1ccc(-c2nc3[nH]c(O[C@@H]4CO[C@H]5[C@@H]4OC[C@H]5O)nc3cc2Cl)cc1)c1ccccc1 [Example 12, (R)-N-(4-(6-Chloro-2-((3R,3aR,6R,6aR)-6-hydroxyhexahydrofuro[3,2-b]furan-3-yloxy)-3H-imidazo[4,5-b]pyridin-5-yl)phenyl)-S-methyl-S-phenylsulfoximide] | 581 nM
12 | CCS(C)(=O)=Nc1ccc(-c2ccc(-c3nc4[nH]c(O[C@@H]5CO[C@H]6[C@@H]5OC[C@H]6O)nc4cc3Cl)cc2)cc1 (stereo partly drawn) [Example 13, N-(4′-(6-Chloro-2-((3R,3aR,6R,6aR)-6-hydroxyhexahydrofuro[3,2-b]furan-3-yloxy)-3H-imidazo[4,5-b]pyridin-5-yl)biphenyl-4-yl)-S-ethyl-S-methylsulfoximide] | 4 nM
13 | CS(C)(=O)=Nc1cccc(-c2ccc(-c3nc4[nH]c(O[C@@H]5CO[C@H]6[C@@H]5OC[C@H]6O)nc4cc3Cl)cc2)c1 [Example 14, N-(4′-(6-Chloro-2-((3R,3aR,6R,6aR)-6-hydroxyhexahydrofuro[3,2-b]furan-3-yloxy)-3H-imidazo[4,5-b]pyridin-5-yl)biphenyl-3-yl)-S,S-dimethylsulfoximide] | 6 nM
14 | CS(=O)(=Nc1ccc(-c2ccc(-c3nc4[nH]c(O[C@@H]5CO[C@H]6[C@@H]5OC[C@H]6O)nc4cc3Cl)cc2)cc1)C1CC1 (stereo partly drawn) [Example 15, N-(4′-(6-Chloro-2-((3R,3aR,6R,6aR)-6-hydroxyhexahydrofuro[3,2-b]furan-3-yloxy)-3H-imidazo[4,5-b]pyridin-5-yl)biphenyl-4-yl)-S-cyclopropyl-S-methylsulfoximide] | 41 nM
15 | C[S@@](=O)(=NC(=O)c1ccc(-c2nc3[nH]c(O[C@@H]4CO[C@H]5[C@@H]4OC[C@H]5O)nc3cc2Cl)cc1)c1ccccc1 [Example 16, (S)-N-4-(6-Chloro-2-((3R,3aR,6R,6aR)-6-hydroxyhexahydrofuro[3,2-b]furan-3-yloxy)-3H-imidazo[4,5-b]pyridin-5-yl)benzoyl-S-methyl-5-phenylsulfoximine] | 245 nM
16 | CS(C)(=N)=Nc1ccc(-c2ccc(-c3nc4[nH]c(O[C@@H]5CO[C@H]6[C@@H]5OC[C@H]6O)nc4cc3Cl)cc2)cc1 [Example 17, N-(4′-(6-Chloro-2-((3R,3aR,6R,6aR)-6-hydroxyhexahydrofuro[3,2-b]furan-3-yloxy)-3H-imidazo[4,5-b]pyridin-5-yl)biphenyl-4-yl)-S,S-dimethyl-sulfondiimine] | 1 nM
17 | CC(C)S(C)(=O)=Nc1ccc(-c2ccc(-c3nc4[nH]c(O[C@@H]5CO[C@H]6[C@@H]5OC[C@H]6O)nc4cc3Cl)cc2)cc1 (stereo partly drawn) [Example 18, N-(4′-(6-Chloro-2-((3R,3aR,6R,6aR)-6-hydroxyhexahydrofuro[3,2-b]furan-3-yloxy)-3H-imidazo[4,5-b]pyridin-5-yl)biphenyl-4-yl)-S-isopropyl-S-methylsulfoximide] | 34 nM
18 | CS(=O)(=NC(=O)c1ccc(-c2nc3[nH]c(O[C@@H]4CO[C@H]5[C@@H]4OC[C@H]5O)nc3cc2Cl)cc1)c1cccnc1 (stereo partly drawn) [Example 19, N-4-(6-Chloro-2-((3R,3aR,6R,6aR)-6-hydroxyhexahydrofuro[3,2-b]furan-3-yloxy)-3H-imidazo[4,5-b]pyridin-5-yl)benzoyl-S-methyl-S-(pyridin-3-yl)-sulfoximine] | 55 nM
19 | CS(=O)(=NC(=O)c1ccc(-c2nc3[nH]c(O[C@@H]4CO[C@H]5[C@@H]4OC[C@H]5O)nc3cc2Cl)cc1)C1CCOCC1 (stereo partly drawn) [Example 20, N-4-(6-Chloro-2-((3R,3aR,6R,6aR)-6-hydroxyhexahydrofuro[3,2-b]furan-3-yloxy)-3H-imidazo[4,5-b]pyridin-5-yl)benzoyl-S-methyl-S-(tetrahydro-2H-pyran-4-yl)-sulfoximine] | 776 nM
20 | O=C(N=S1(=O)CCOCC1)c1ccc(-c2nc3[nH]c(O[C@@H]4CO[C@H]5[C@@H]4OC[C@H]5O)nc3cc2Cl)cc1 [Example 21, 4-[6-Chloro-2-((3R,3aR,6R,6aR)-6-hydroxy-hexahydro-furo[3,2-b]furan-3-yloxy)-3H-imidazo[4,5-b]pyridin-5-yl]-N-(4-oxo-4λ6-[1,4]oxathian-4-ylidene)-benzamide] | 43 nM
21 | O=C(N=S1(=O)CCCCC1)c1ccc(-c2nc3[nH]c(O[C@@H]4CO[C@H]5[C@@H]4OC[C@H]5O)nc3cc2Cl)cc1 [Example 24, 4-[6-Chloro-2-((3R,3aR,6R,6aR)-6-hydroxy-hexahydro-furo[3,2-b]furan-3-yloxy)-3H-imidazo[4,5-b]pyridin-5-yl]-N-(1-oxo-hexahydro-1λ6-thiopyran-1-ylidene)-benzamide] | 215 nM
22 | C[S@](=O)(=NC(=O)c1ccc(-c2nc3[nH]c(O[C@@H]4CO[C@H]5[C@@H]4OC[C@H]5O)nc3cc2Cl)cc1)c1ccccc1 [Example 25, (R)-N-4-(6-Chloro-2-((3R,3aR,6R,6aR)-6-hydroxyhexahydrofuro[3,2-b]furan-3-yloxy)-3H-imidazo[4,5-b]pyridin-5-yl)-benzoyl-S-methyl-5-phenylsulfoximine] | 1200 nM
